Measured values taken from patent US5506102A (priority 1993, dated 1996).

Assays:
ER = ER transcriptional activity on MMTV-ERE-LUC in HepG2 and HS578T cells; type: cell-based; settings: data not shown
human estrogen receptor [1] = assay: ER transcriptional activity on MMTV-ERE-LUC, CV-1 cells, ER co-expressed with PR-A; type: cell-based
Protocol: All values were normalized for transfection efficiency by simultaneous estimation of luciferase and β-galactocidase activities. The relative luciferase activity is calculated by dividing the normalized luciferase value at a given point by that obtained in the absence of transfected receptor or ligand. Data shown represent the mean +/- the average deviation from the mean of triplicate estimations.
Experimental protocols and data calculation are as described in FIG. 11. The experiment detailed above is representative of independent assays (N>3). Data shown represent the mean +/- the average deviation from the mean of triplicate estimations.
Vegeto et al., supra. Cells were plated into 96-well tissue culture plates. The vector DNA was introduced into the CV-1 cells using calcium phosphate coprecipitation as described herein. More specifically, 20 μg of DNA/ml of transfection buffer were used in each transfection. Each transfection mix included 0.5 μg of pRST7hER, 9.5 μg of MMTV-ERE-LUC, 5 μg of pCH110, (which contains the gene for β-galactosidase) as an internal control and 5 μg of PGEM4 DNA as a carrier. Depending on the experiment, 0.1 μg pSVhPR-A or pSVhPR-B and an amount of pSVXV2neo (Dr. Bert O'Malley, Baylor College of Medicine) to bring the total amount of DNA to 20 μg was added. The concentration of pXVhPR-A vector chosen was determined by performing the experiment at several different concentrations of vector, and then using that concentration that was optimal for transcriptional readout. The concentration of pSVhPR-B vector was chosen based upon the amount required to give an identical amount of immunoreactive PR-A and PR-B. After transfections using a Biomek 1000 automated laboratory workstation, the cells were incubated with the precipitate for 6 hours. Cells were washed with PBS and incubated for 40 hours with or without hormones as indicated. Cell extracts were prepared as previously described herein and assayed for luciferase (LUC) and β-galactosidase activities. The Normalized LUC activity was calculated by dividing the raw luciferase (×10^4) units for each point by the β-galactosidase activity [(OD415 nm ×10^5)/time min.] at that point.

human estrogen receptor [2] = assay: ER transcriptional activity on ERE-TK-LUC, CV-1 cells, with PR-A; type: cell-based; settings: PR-A co-expressed, CV-1, FIG. 14A
Protocol: (§1) The experimental protocols and data calculation are as described in FIG. 11 with the exception that the MMTV-ERE-LUC reporter plasmid was replaced with either the ERE-TK-LUC or C3-LUC reporters plasmids. The experiment detailed above is representative of several independent assays. Each measurement was performed in triplicate.
(§2) The experimental protocols and data calculation are as described in Example 8 with the exception that the MMTV-ERE-LUC reporter plasmid was replaced with either ERE-TK-LUC or C3-LUC.

human estrogen receptor [3] = assay: ER transcriptional activity on C3-LUC (complement C3 promoter), CV-1 cells, with PR-A; type: cell-based; settings: PR-A co-expressed, CV-1, FIG. 14B
Protocol: as §1, §2

[4] = tested on: primate uterus and oviducts; settings: cited from earlier work

Q: Which anti-estrogenic activity (ER; HS578T cells) does the source give for `CC#C[C@]1(O)CC[C@H]2[C@@H]3CCC4=CC(=O)CCC4=C3[C@@H](c3ccc(N(C)C)cc3)C[C@@]21C` [RU486, 11β-(4-dimethylaminophenyl)-17β-hydroxy-17α-(1-propynyl)-4,9-estradien-3-one] here?
A: Its anti-estrogenic activity is “both anti-progestins functioned as anti-estrogens”.

Q: And the anti-estrogenic activity (ER; HepG2 cells)?
A: The anti-estrogenic activity was “neither anti-progestin exhibited any anti-estrogenic activity”.

Q: And the “suppression of ER mediated activation of ERE-TK promoter” value (human estrogen receptor [2])?
A: The value was “effectively suppressed”.

Q: And the “suppression of ER mediated activation of complement C3 promoter” value (human estrogen receptor [3])?
A: The value was “effectively suppressed”.

Q: And the activity in oviducts ([4]; oviducts of the same animal (primate))?
A: The activity in oviducts was “only manifests anti-progestenic activity”.
